Patent US20140018316A1, “OPHTHALMIC PHARMACEUTICAL COMPOSITION” (Hayashibara Co., Ltd., priority 2005, published 2014)

System: circular corneal fragment extracted from a pig eye ball
Assay: Corneal walleye/cloudiness and edema of pig corneal fragments soaked in test or control solutions
Parameters: degree of corneal walleye/cloudiness (relative value): scale not given here; key to corneal edema: ◯: Corneal edema was observed.; —: No corneal edema was observed
Settings: for corneal edema / degree of corneal walleye/cloudiness (relative value): 100 mM in physiological saline
Protocol: Experiment to examine the influence of cyclic tetrasaccharide on corneal walleye/cloudiness was conducted as follows: A physiological saline containing 100 mM cyclic tetrasaccharide was previously prepared for use as a test solution by dissolving a cyclic tetrasaccharide crystal, pentahydrate, which had been prepared by the later described method in Example for Reference 2. As a positive control solution, it was prepared a physiological saline containing 100 mM α,α-trehalose, a reagent grade specimen, commercialized by Hayashibara Biochemical Laboratories, Inc., Okayama, Japan; and as a negative control solution, physiological saline was used. Two milliliters of any one of the above three kinds of aqueous solutions were added to respective two wells in a commercialized 24-well culture plate. To each well in each culture plate a circular corneal fragment, which had been extracted from a pig eye ball obtained from a slaughterhouse by using a trephine for corneal transplantation, was placed and macroscopically and microscopically observed for changing in both the degree of corneal walleye/cloudiness and the change of corneal shape such as corneal edema. The macroscopic and microscopic observations were done just after the corneas were placed in the wells at (0) and at 1, 2, 6, 24, 48 and 72 hours after their placing. The methods of macroscopic and microscopic observations and the analysis of the time course change of corneal walleye/cloudiness were conducted by the same ones as used in Experiment 1. Tables 3 and 4 show the transition of corneal walleye/cloudiness and that of the corneal edema, respectively.

## OCC1OC2OCC3O[C@H](O[C@H]4C(O)C(CO)OC(OCC5O[C@H](O[C@@H](C1O)C2O)C(O)C(O)[C@@H]5O)C4O)C(O)C(O)[C@@H]3O (stereo partly drawn) [Test solution, cyclo{→6)-α-D-glucopyranosyl-(1→3)-α-D-glucopyranosyl-(1→6)-α-D-glucopyranosyl-(1→3)-α-D-glucopyranosyl-(1→}]
1 hour
  corneal edema: —
  degree of corneal walleye/cloudiness (relative value): 11
2 hours
  corneal edema: —
  degree of corneal walleye/cloudiness (relative value): 11
6 hours
  corneal edema: —
  degree of corneal walleye/cloudiness (relative value): 13
24 hours
  corneal edema: —
  degree of corneal walleye/cloudiness (relative value): 16
48 hours
  corneal edema: —
  degree of corneal walleye/cloudiness (relative value): 16
72 hours
  corneal edema: —
  degree of corneal walleye/cloudiness (relative value): 19
Time 0
  corneal edema: —
  degree of corneal walleye/cloudiness (relative value): 10
100 mM, up to 72 hours
  corneal edema (in words): No occurrence of corneal edema was observed
